Laboratory results published in patent publication US11628198B2, “Methods for prevention and treatment of acute renal injury” (Cornell University, priority 2008, dated 2023).

Key:
Type in all cases: in vivo, rat
[1] = tested on: radiocontrast dye-induced renal failure; experiment: CIN, indomethacin/L-NAME/iothalamate model, Experiment 1
Experimental: Animal Model: A model of radiocontrast dye-induced renal failure as described by Agmon et al. J Clin Invest 94:1069-1075 (1994) in this Example. As in humans, radiocontrast dye is generally non-toxic when administered to animals with normal renal function. However, radiocontrast dye can induce ARI in animals with impaired renal function. In this model, impaired renal function was induced by the administration of indomethacin (10 mg/kg) and L-NAME (10 mg/kg). The animals were divided into 3 groups: • 1. Group (1) control (n=8) • 2. Group (2) Indomethcin/L-NAME (given 15 min apart) followed by iothalamate (AngioConray 6 ml/kg) (n=7) • 3. Group (3) SS-31 (3 mg/kg, ip) was given 15 min prior to administration of indomethacin/L-NAME/iothalamate, and a second dose of SS-31 (3 mg/kg) was repeated immediately after drug exposure (n=9)
Experimental Protocol: Rats were kept in metabolic cages (Nalge Co., Rochester, N.Y.) with free access to tap water and standard rat chow. After a baseline 24-h urinary collection, the rats were anesthetized with a mixture of ketamine (90 mg/kg, i.p.) and xylazine (4 mg/kg, i.p.). The left femoral vein and artery were cannulated and a baseline blood sample drawn (1 ml) for measurement of creatinine level. The animals then received the various drug treatments as indicated above. Iothalamate Meglumine 60% (contrast dye; AngioConray 6 ml/kg) was then injected through the arterial cannula. The left femoral artery was then ligated and the cannula removed. Rats were then returned to the metabolic cages for another 24-h urine collection. […]
Renal Function: Renal function was assessed by determining GFR at baseline and 24 h following dye administration. […] Creatinine clearance was analyzed by measuring plasma (Pcr), urinary creatinine (Ucr) levels (Bioassay Systems; DICT-500) and urine volume.
Renal Histology: Kidneys were fixed in 10% neutral-buffered formalin and embedded in paraffin wax. Three micron sections were stained with hematoxylin-eosin (H&E) and periodic acid-Schiff (PAS) and analyzed by light microscopy by a board certified pathologist.

[2] = tested on: CIN in glycerol-induced rhabdomyolysis animal model; experiment: CIN in glycerol-induced rhabdomyolysis model, Experiment 3
Experimental: SD rats with body weight of 300-400 grams were dehydrated for 24 h followed by i.m. injection with 25% glycerol solution (v/v) at the dose of 10 ml/kg. Twenty-four hours (24 h) later, the rats were grouped and subjected to contrast induced nephropathy study protocol. Eighteen SD rats with body weight of 350-400 g were randomized into three groups with the doses, dosing schedules and study protocol presented in FIG. 27. The effects of SS-31 on ARI can be examined by comparing the renal functions in animals from group A with that from group B.
Renal function: Renal function was assessed by determining serum and urinary creatinine using Jiancheng Cr kit (Nanjing, P.R.C) at baseline, 24 h after dehydration and 48 h post the contrast dye administration. The creatinine clearance was calculated based on the Scr, Ucr and Urinary volume. Urinary protein concentration was determined by Bradford Protein Assay kit (Sigma, U.S.A.). Samples were analyzed by students t-test and differences were considered significant at p<0.05.

[3] = tested on: ARI caused by ischemia-reperfusion (I/R); experiment: I/R model: TUNEL assay for apoptosis; details: 30 min ischemia and 24 h reperfusion; 3 mg/kg
Experimental: Sprague Dawley rats (250˜300 g) were assigned to four groups: (1) sham surgery group without I/R; (2) I/R+saline vehicle treatment; (3) I/R+SS-20 treatment; (4) I/R+SS-31 treatment. Each experimental group consisted of 8 rats. SS-20 and SS-31 (3 mg/kg, dissolved in saline) were administered to rats 30 min before ischemia and immediately before onset of reperfusion. The control rats were given saline alone on the same schedule.
Rats were anesthetized with a mixture of ketamine (90 mg/kg, i.p.) and xylazine (4 mg/kg, i.p.). The left renal vascular pedicle was occluded temporarily using a micro-clamp for 30 or 45 min. At the end of the ischemic period, reperfusion was established by removing of the clamp. At that time, the contralateral right kidney was removed. After 24 h reperfusion, animals were sacrificed and blood samples were obtained by cardiac puncture. Renal function was determined by blood urea nitrogen (BUN) and serum creatinine (BioAssay Systems DIUR-500 and DICT-500).
TUNEL Assay for Apoptosis: Renal tissue sections were deparaffinized and rehydrated by xylenes, graded alcohol series and deionized H2O, and then incubated in 20 μg/ml proteinase K for 20 min at RT. In situ cell death detection POD kit (Roche, IN, USA) was used according to the manufacturer's instructions. […]

[4] = tested on: ARI caused by ureteral obstruction (UUO); experiment: 14-day UUO model: immunohistochemistry and TUNEL
Experimental: Sprague-Dawley rats underwent unilateral ureteral ligation (UUO) with 4-0 silk suture through a midline abdominal incision under sterile conditions. Ureteral obstruction was carried out by ligating the left ureter at the end of lower ureter, just above the ureterovesical junction.
SS-31 (1 mg/kg or 3 mg/kg; n=8) was administered intraperitoneally, one day prior to UUO and continuing for 14 days. A separate group of animals was given saline, as a vehicle control (n=16).
Immunohistochemical Analysis: Immunohistochemical staining for macrophages was carried out using a monoclonal antibody to ED-1 (Serotec) as previously described. Macrophages were counted in 10 high-power fields (×400) by two different independent investigators in a blinded fashion. The TUNEL assay was performed as described in Example 1. The presence of fibroblasts was examined using immunohistochemistry, as described in Example 1. The antibody utilized was DAKO #S100-A4 (1:100 dilution). The S100-A4 antigen is also known as FSP-1 (fibroblast specific protein). Antigen was retrieved by incubating cells with Proteinase K for 20 min in an oven. The remaining immunoperoxidase protocol was carried out according to routine procedures. Staining for S100-A4 was found in spindle-shaped interstitial cells, and also in cells which were round, and were identified as inflammatory cells by the pathologist. Only spindle-shaped cells were included in the counts. […] 8-OH dG staining was carried using Proteinase K for antigen retrieval. The antibody used was from the Japan Institute Control of Aging, and was used at a dilution of 1:200-1:500.

D-Arg-2′6′Dmt-Lys-Phe-NH2 [SS-31]
rats almost completely protected from the effects of the dye ([1]; 3 mg/kg ip before and after drug exposure): Six of nine | PAS staining of kidney ([1]; dye-injected): intact brush borders and normal glomeruli | apoptotic cells/hpf (TUNEL) ([1]; dye-injected): greatly attenuated | PAS staining of kidney ([2]; glycerin, dye): intact brush borders, normal glomeruli and minimum protein cast in the tubular cells | urine protein level over time ([2]; vs vehicle group): recovered faster than the vehicle group | TUNEL-positive cells in the medulla (tubular cell apoptosis) [3]: significantly prevented TUNEL-positive cells | fibroblast infiltration (FSP-1) in the OK ([4]; 1 mg/kg): 43.4 % of control | tubular apoptosis (TUNEL) ([4]; 1 mg/kg): 5.1±0.5 cells per HPF | tubular proliferation (PCNA), increase ([4]; 1 mg/kg): 2 fold | fibroblast infiltration (FSP-1) in the OK ([4]; 3 mg/kg): 28.0 % of the untreated OK | renal tubular apoptosis (TUNEL) ([4]; 3 mg/kg): 3.0±0.3 apoptotic cells/HPF | tubular proliferation (PCNA), increase ([4]; 3 mg/kg): 3.5 fold | macrophage infiltration into the OK (ED-1) ([4]; 1 and 3 mg/kg): significantly decreased macrophage infiltration | 8-OH dG positive cells/HPF ([4]; obstructed kidney): significantly reduced
